According to US20170050957A1, “4-AMINO-6-(HETEROCYCLIC)PICOLINATES AND 6-AMINO-2-(HETEROCYCLIC)PYRIMIDINE-4-CARBOXYLATES AND THEIR USE AS HERBICIDES” (Dow AgroSciences LLC, priority 2013, published 2017):
Read-outs that look alike come from different tables or passages of the source.

Key:
[1] = system: Key Broadleaf Weed and Crop Species; experiment: Post-emergent Test II herbicidal activity (Table 15); type: in vivo; settings: post-emergence, 336 h, 14 d; for pest or weed control at 35 g/ha: 35 g ai/ha; for pest or weed control at 70 g/ha: 70 g ai/ha; for pest or weed control at 140 g/ha: 140 g ai/ha
Outline: (§1)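 Plants at first-second true leaf stage, grown 7-21 d in greenhouse (~15 h photoperiod, 23-29 °C day), were track-sprayed at 187 L/ha with compound in acetone/DMSO/water/isopropanol/crop oil/Triton X-155 at a high rate plus 1/2× to 1/16× dilutions. Injury scored visually after 14 d versus untreated plants, 0 (none) to 100% (complete kill).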

[2] = system: Key Grass and Sedge Weeds as well as Grass Crops; experiment: Post-emergent Test II herbicidal activity (Table 16); type: in vivo; settings: post-emergence, 336 h, 14 d; for pest or weed control at 35 g/ha: 35 g ai/ha; for pest or weed control at 70 g/ha: 70 g ai/ha; for pest or weed control at 140 g/ha: 140 g ai/ha
Outline: as §1

[3] = system: sunflower (Helianthus annuus); experiment: Pre-emergent Test I herbicidal activity; type: in vivo; settings: 3.96 Kg ai/ha
Procedure: (§2) Pre-emergent Test I Seeds of test species were planted into round plastic pots (5-inch diameter) containing sandy loam soil. After planting, all pots were sub-irrigated 16 h prior to compound application. Compounds were dissolved in a 97:3 v/v (volume/volume) mixture of acetone and dimethyl sulfoxide (DMSO) and diluted to the appropriate concentration in a final application solution containing water, acetone, isopropanol, DMSO and Agri-dex (crop oil concentrate) in a 59:23:15:1.0:1.5 v/v ratio and 0.02% w/v (weight/volume) of Triton X-155 to obtain the spray solution containing the highest application rate. The high application rate was serial diluted with the above application solution to provide delivery of the compound at rates 1/2×, 1/4× and 1/8× of the highest rate (equivalent to 4.0, 2.0, 1.0, and 0.5 kg/ha, respectively). Formulated compound (2.7 mL) was applied pipetted evenly over the soil surface followed by incorporation with water (15 mL). Following treatment, pots were returned to the greenhouse for the duration of the experiment. The greenhouse was programmed for an approximate 15 h photoperiod which was maintained at about 23-29° C. during the day and 22-28° C. during the night. Nutrients and water were added on a regular basis through surface irrigation and supplemental lighting was provided with overhead metal halide 1000-Watt lamps as necessary. Herbicidal effect ratings were obtained 14 days after treatment. All evaluations were made relative to appropriate controls on a scale of 0 to 100 where 0 represents no herbicidal effect and 100 represents plant death or lack of emergence from the soil.

wild oats (Avena fatua) = experiment: Pre-emergent Test I herbicidal activity; type: in vivo; settings: 3.96 Kg ai/ha
Procedure: as §2

[4] = system: giant foxtail (Setaria faberi); experiment: Pre-emergent Test I herbicidal activity; type: in vivo; settings: 3.96 Kg ai/ha
Procedure: as §2

[5] = system: ivyleaf morningglory (Ipomoea hederecea); experiment: Pre-emergent Test I herbicidal activity; type: in vivo; settings: 3.96 Kg ai/ha
Procedure: as §2

[6] = system: barnyardgrass (Echinochloa crs-galli); experiment: Pre-emergent Test I herbicidal activity; type: in vivo; settings: 3.96 Kg ai/ha
Procedure: as §2

[7] = Abutilon theophrasti, velvetleaf (Abutilon theophrasti), read-out: Visual Growth Reduction (%) 14 Days After Application, ABUTH
[8] = Amaranthus retroflexus, redroot pigweed (Amaranthus retroflexus), read-out: Visual Growth Reduction (%) 14 Days After Application, AMARE
[9] = Brassica napus, oilseed rape, canola (Brassica napus), read-out: Visual Growth Reduction (%) 14 Days After Application, BRSNN
[10] = Chenopodium album, lambsquarters (Chenopodium album), read-out: Visual Growth Reduction (%) 14 Days After Application, CHEAL
[11] = Euphorbia heterophylla, wild poinsettia (Euphorbia heterophylla), read-out: Visual Growth Reduction (%) 14 Days After Application, EPHHL
[12] = Helianthus annuus, sunflower (Helianthus annuus), read-out: Visual Growth Reduction (%) 14 Days After Application, HELAN
[13] = Cyperus esculentus, yellow nutsedge (Cyperus esculentus), read-out: Visual Growth Reduction (%) 14 Days After Application, CYPES
[14] = Echinochloa crus-galli, barnyardgrass (Echinochloa crus-galli), read-out: Visual Growth Reduction (%) 14 Days After Application, ECHCG
[15] = Oryza sativa, rice (Oryza sativa), read-out: Visual Growth Reduction (%) 14 Days After Application, ORYSA
[16] = Setaria faberi, giant foxtail (Setaria faberi), read-out: Visual Growth Reduction (%) 14 Days After Application, SETFA
[17] = Triticum aestivum, wheat, spring (Triticum aestivum), read-out: Visual Growth Reduction (%) 14 Days After Application, TRZAS
[18] = Zea mays, maize, corn (Zea mays), read-out: Visual Growth Reduction (%) 14 Days After Application, ZEAMX

COC(=O)c1nc(-c2ccc3ccn(C)c3c2)c(F)c(N)c1Cl [Compound 1.10]
45 to 59%: pest or weed control at 140 g/ha [1, 12]
85 to 94%: pest or weed control at 70 g/ha [1, 8]
G (0-29): Visual Growth Reduction (%) 14 Days After Application HELAN [3] | Visual Growth Reduction (%) 14 Days After Application AVEFA (wild oats (Avena fatua)) | Visual Growth Reduction (%) 14 Days After Application, SETFA [4] | Visual Growth Reduction (%) 14 Days After Application IPOHE [5]
0 to 29%: pest or weed control at 35 g/ha [1, 7] | pest or weed control at 70 g/ha [1, 7] | pest or weed control at 140 g/ha [1, 7] | pest or weed control at 35 g/ha [1, 8] | pest or weed control at 35 g/ha [1, 9] | pest or weed control at 70 g/ha [1, 9] | pest or weed control at 140 g/ha [1, 9] | pest or weed control at 35 g/ha [1, 11] | pest or weed control at 70 g/ha [1, 11] | pest or weed control at 140 g/ha [1, 11] | pest or weed control at 35 g/ha [1, 12] | pest or weed control at 70 g/ha [1, 12] | pest or weed control at 35 g/ha [2, 13] | pest or weed control at 70 g/ha [2, 13] | pest or weed control at 140 g/ha [2, 13] | pest or weed control at 35 g/ha [2, 14] | pest or weed control at 70 g/ha [2, 14] | pest or weed control at 140 g/ha [2, 14] | pest or weed control at 35 g/ha [2, 15] | pest or weed control at 70 g/ha [2, 15] | pest or weed control at 140 g/ha [2, 15] | pest or weed control at 35 g/ha [2, 16] | pest or weed control at 70 g/ha [2, 16] | pest or weed control at 140 g/ha [2, 16] | pest or weed control at 35 g/ha [2, 17] | pest or weed control at 70 g/ha [2, 17] | pest or weed control at 140 g/ha [2, 17] | pest or weed control at 35 g/ha [2, 18] | pest or weed control at 70 g/ha [2, 18] | pest or weed control at 140 g/ha [2, 18]
F (30-44): Visual Growth Reduction (%) 14 Days After Application, ECHCG [6]
95 to 100%: pest or weed control at 140 g/ha [1, 8] | pest or weed control at 35 g/ha [1, 10] | pest or weed control at 70 g/ha [1, 10] | pest or weed control at 140 g/ha [1, 10]

Nc1c(F)c(-c2ccc3cc[nH]c3c2)nc(C(=O)O)c1Cl [Compound 1.09]
0 to 29%: pest or weed control at 35 g/ha [2, 15] | pest or weed control at 70 g/ha [2, 15] | pest or weed control at 140 g/ha [2, 15] | pest or weed control at 35 g/ha [2, 17] | pest or weed control at 70 g/ha [2, 17] | pest or weed control at 140 g/ha [2, 17]
60 to 74%: pest or weed control at 35 g/ha [2, 18]
85 to 94%: pest or weed control at 35 g/ha [1, 11] | pest or weed control at 140 g/ha [2, 13] | pest or weed control at 35 g/ha [2, 16] | pest or weed control at 70 g/ha [2, 16] | pest or weed control at 140 g/ha [2, 16]
75 to 84%: pest or weed control at 70 g/ha [2, 13] | pest or weed control at 70 g/ha [2, 18] | pest or weed control at 140 g/ha [2, 18]
95 to 100%: pest or weed control at 35 g/ha [1, 7] | pest or weed control at 70 g/ha [1, 7] | pest or weed control at 140 g/ha [1, 7] | pest or weed control at 35 g/ha [1, 8] | pest or weed control at 70 g/ha [1, 8] | pest or weed control at 140 g/ha [1, 8] | pest or weed control at 35 g/ha [1, 9] | pest or weed control at 70 g/ha [1, 9] | pest or weed control at 140 g/ha [1, 9] | pest or weed control at 35 g/ha [1, 10] | pest or weed control at 70 g/ha [1, 10] | pest or weed control at 140 g/ha [1, 10] | pest or weed control at 70 g/ha [1, 11] | pest or weed control at 140 g/ha [1, 11] | pest or weed control at 35 g/ha [1, 12] | pest or weed control at 70 g/ha [1, 12] | pest or weed control at 140 g/ha [1, 12] | pest or weed control at 35 g/ha [2, 14] | pest or weed control at 70 g/ha [2, 14] | pest or weed control at 140 g/ha [2, 14]
30 to 44%: pest or weed control at 35 g/ha [2, 13]
138 to 140 °C: melting point
